# Like-named read-outs stand apart in the source and are kept apart here.
# Legend:
# [1] = test system: Rat; test: Behavioral toxicity, rat (po); assay type: in vivo; settings: behavioral toxicity
# Procedure: (§1) Tests are conducted in groups of at least 8 mice or rats to determine the intrinsic neurotoxicity (neuromuscular impairment) after administration of the test compound by the route of administration to be used in the pharmacology studies. Neurotoxicity is determined in male CF No 1 mice by the rotarod procedure. Inability of the mouse to maintain its equilibrium in 3 trials during 1 min on this rotating rod (6 rpm) is used as an indication of such impairment. In Sprague-Dawley rats, minimal motor impairment (MMI) is determined by overt evidence of ataxia, abnormal gait, and stance.
# [2] = Neurological toxicity, rotorod test, mice (ip); assay type: in vivo; settings: male, CF No 1, mouse, in vivo
# Procedure: as §1
# [3] = test system: Mice; test: Maximal electroshock seizure (MES) test, mice (ip);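 also: male albino CF No. 1 mice dosed ip, MES stimulus 50 mA at 60 Hz lasting 0.2 s, efficacy endpoint is loss of hind leg tonic extension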
# Procedure: (§2) The maximal electroconvulsive shock (MES) test is regarded as a standard screen for anticonvulsant activity in terms of inhibition of seizure spread in generalized tonic-clonic seizures.
# (§3) Groups of at least 8 male albino CF No. 1 mice or male albino Sprague-Dawley rats are treated with 10 mL/kg i.p. or 4 mL/kg p.o. of the test compound solution, respectively. The electrical stimulus in the MES test is 50 mA at 60 Hz for mice and 150 mA at 60 Hz for rats, both delivered for 0.2 sec. Abolition of the hind leg tonic extensor component of the seizure is used as the endpoint.
# [4] = test system: Mice; test: Formalin test (mice, ip); assay type: in vivo; settings: for Formalin Assay Acute (%) / Formalin Assay Inflam. (%): mice, ip; for Formalin Test (mice, ip) Inflammatory (%): duration of licking as percent of control, late phase
# Procedure: Compounds of the present invention were active in treating pain in a formalin test carried out in accordance with standard techniques, as described in S. Hunskaar et al., J. Neurosci. Methods 14: 69-76 (1985). Briefly, 0.5% formalin is injected into the mouse hind paw to elicit a bi-phasic licking response, where the first acute phase is thought to correspond to the direct stimulation of peripheral fibers and the second (inflammatory) phase is caused by the release of inflammatory mediators.
# Spinal/supraspinal plasticity of nociception is considered as a molecular basis for neuropathic pain particularly during the second (late) phase of the test (Dubuisson & Dennis, 1977; Coderre et al., 1990; Coderre & Melzack, 1992), during which most clinically used drugs against neuropathic pain are active.
# [5] = test system: Rat; test: Maximal electroshock seizure (MES) test, rat (po); assay type: in vivo; settings: for ED50: read-out: Rat (po) MES, ED50
# Procedure: as §2, §3
# [6] = test system: Mice; test: Neurological toxicity, rotorod test, mice (ip); assay type: in vivo; settings: for Mice (ip) Tox, Td50: rotorod test; for Mice (ip) Tox, TD50: Table b500, rotorod test
# Procedure: as §1
# [7] = test system: Rats; test: Hippocampal kindling test, rats (ip); assay type: in vivo; settings: for ED50: Rattus norvegicus, ip, read-out: Hippocampal Kindled Rats (ip) ED50 (interval)
# Procedure: The kindling model provides a tool to predict a test compound's activity in complex partial seizures.
# Male albino Sprague-Dawley rats (n=8) are kindled to a Stage 5 behavioral seizure. They are treated with an appropriate i.p. dose of the test compound after a 1-week, stimulus-free period. The test compound is evaluated for its effect on kindled motor seizures (seizures scores of 4 and 5), limbic behavior seizures (seizure scores between 1 and 3) and after-discharge duration. After 15 min, each rat is stimulated every 30 min for 3-4 h. Following each stimulation, individual seizure scores and after-discharge duration are recorded. The group mean and standard error of the mean (SEM) are calculated for each parameter.
# [8] = test system: Rat; settings: cited from earlier work
# [9] = rotorod test, read-out: Mice (ip) Tox, TD50
# [10] = rotorod test, read-out: Mice (ip) Tox, Td50
# [11] = Table b502, protective index (TD50/ED50)
structure (smiles),measurement,setting,value
CC(=O)N[C@H](C)C(=O)NCc1ccc(OCc2cccc(F)c2)cc1,melting point,,158 °C
COCCCc1ccc(CNC(=O)[C@@H](COC)NC(C)=O)cc1,melting point,,105 to 107 °C
COCc1ccc(CNC(=O)[C@@H](COC)NC(C)=O)cc1,melting point,,119 to 120 °C
CC(=O)N[C@@H](C(=O)NCc1ccc(OCc2cccc(F)c2)cc1)C(C)(C)C,melting point,,64 to 66 °C
"CC(=O)NC(C(=O)NCc1ccc(OCc2cccc(F)c2)cc1)c1ccccn1 (racemic) [(R, S)-9, N-4-(3-Fluorobenzyloxy)benzyl 2-Acetamido-2-(pyridin-2-yl)acetamide]",melting point,,154 to 155 °C
same,"Rat (po) Tox, TD50","[1]; Table b500, orally",>30 [4] mg/kg
same,TD50,[2]; [9],210 mg/kg
"COC[C@@H](NC(C)=O)C(=O)NCc1ccc(N=[N+]=[N-])cc1 [(R)-5, (R)—N-(4-Azidobenzyl)-2-acetamido-3-methoxypropanamide]",Mice (ip) PI,"[3]; ip, PI=TD50/ED50",5.5
same,Formalin Assay Acute (%),[4]; dose 8.0 (mg),59%
same,Formalin Assay Inflam. (%),[4]; dose 8.0 (mg),106%
same,melting point,,149 to 150 °C
same,Rat (po) PI,[5]; PI=TD50/ED50,>64
COC[C@@H](NC(C)=O)C(=O)NCc1ccc(CCc2cccc(F)c2)cc1 [(R)-13],"Mice (ip) MES, ED50","[3]; Table b501, intraperitoneally",">10, <30 [0.5] mg/kg"
same,melting point,,134 to 136 °C
same,"Rat (po) Tox, TD50","[1]; Table b501, orally",>30 [1] mg/kg
same,TD50,[2]; [10],30 to 100 mg/kg
"COC[C@@H](NC(C)=O)C(=O)NCc1ccc(C#Cc2cccc(F)c2)cc1 [(R)-15, (R)—N-4-((3-Fluorophenyl)ethynyl)benzyl 2-Acetamido-3-methoxypropionamide]","Mice (ip) MES, ED50","[3]; Table b501, intraperitoneally",">30, <100 [1.0, 4.0] mg/kg"
same,melting point,,200 to 202 °C
same,TD50,[2]; [10],100 to 300 mg/kg
same,ED50,[5]; orally,1.4 mg/kg
"COC[C@@H](NC(C)=O)C(=O)NCc1ccc(COc2cccc(F)c2)cc1 [(R)-16, (R)—N-4-((3-Fluorophenoxy)methyl)benzyl 2-Acetamido-3-methoxypropionamide]","Mice (ip) MES, ED50","[3]; Table b501, intraperitoneally",5.9 [0.25] mg/kg
same,Mice (ip) PI,"[3]; Table b501, ip, protective index (TD50/ED50)",1.8
same,"Mice (ip) Tox, Td50",[6],10 [0.25] mg/kg
same,Rat (po) PI,"[5]; Table b501, protective index (TD50/ED50)",>21
"COC[C@@H](NC(C)=O)C(=O)NCc1ccc(NCc2cccc(F)c2)cc1 [(R)-17, (R)—N-4-(3-Fluorobenzylamino)benzyl 2-Acetamido-3-methoxypropionamide]","Mice (ip) MES, ED50","[3]; Table b501, intraperitoneally",">10, <30 [0.5] mg/kg"
same,melting point,,78 to 81 °C
same,TD50,[2]; [10],30 to 100 mg/kg
"COC[C@@H](NC(C)=O)C(=O)NCc1ccc(COCc2cccc(F)c2)cc1 [(R)-18, (R)—N-4-(((3-Fluoro)benzyloxy)methyl)benzyl 2-Acetamido-3-methoxypropionamide]","Mice (ip) MES, ED50","[3]; Table b501, intraperitoneally",">30, <100 [0.5] mg/kg"
same,"Mice (ip) Tox, Td50",[6],">30, <100 [0.5] mg/kg"
"COC[C@@H](NC(C)=O)C(=O)NCc1ccc(OCCc2cccc(F)c2)cc1 [(R)-19, (R)—N-4′-((3″-Fluoro)phenethoxy)benzyl 2-N-Acetamido-3-methoxypropionamide]","Mice (ip) MES, ED50","[3]; Table b501, intraperitoneally",">30, <100 [0.5, 4.0] mg/kg"
same,melting point,,147 to 148 °C
same,TD50,[2]; [10],30 to 100 mg/kg
"COC[C@@H](NC(C)=O)C(=O)NCc1ccc(OCc2ccccc2)cc1 [(R)-20, (R)—N-4′-(Benzyloxy)benzyl 2-N-Acetamido-3-methoxypropionamide]","Mice (ip) MES, ED50","[3]; Table b502, intraperitoneally",5.8 [0.25] (4.4-7.2) mg/kg
same,Mice (ip) PI,"[3]; Table b502, ip, protective index (TD50/ED50)",3.8
same,melting point,,149 °C
same,"Rat (po) Tox, TD50","[1]; Table b502, orally",>250 [1.0] mg/kg
same,TD50,[2]; [9],22 mg/kg
same,ED50,"[5]; Rattus norvegicus, Table b502, orally",5.6 mg/kg
same,Rat (po) PI,[5]; [11],>45
"COC[C@@H](NC(C)=O)C(=O)NCc1ccc(OCc2ccccc2F)cc1 [(R)-21, (R)—N-4-(2-Fluorobenzyloxy)benzyl 2-Acetamido-3-methoxypropionamide]","Mice (ip) MES, ED50","[3]; Table b502, intraperitoneally",6.7 [0.25] (4.8-9.1) mg/kg
same,melting point,,173 to 174 °C
same,TD50,[2]; [9],37 mg/kg
same,Rat (po) PI,[5]; [11],>45
"COC[C@@H](NC(C)=O)C(=O)NCc1ccc(OCc2ccc(F)cc2)cc1 [(R)-22, (R)—N-4-(4-Fluorobenzyloxy)benzyl 2-Acetamido-3-methoxypropionamide]","Mice (ip) MES, ED50","[3]; Table b502, intraperitoneally",">10, <30 [0.5] mg/kg"
same,melting point,,166 to 167 °C
same,TD50,[2]; [9],30 to 100 mg/kg
same,Rat (po) PI,[5]; [11],>86
"COC[C@@H](NC(C)=O)C(=O)NCc1ccccc1 [(R)-B, (2R)-2-(acetylamino)-N-benzyl-3-methoxypropanamide, reference compound]",ED50,[7],14 mg/kg
same,"Formalin Test (mice, ip) Inflammatory (%)",[4]; dose 5 mg/kg,31 [<0.01] %
"COC[C@H](NC(C)=O)C(=O)NCc1ccc(OCc2cccc(F)c2)cc1 [(S)-3, (S)-2-Acetamido-N-(4-(3-fluorobenzyloxy)benzyl)-3-methoxypropanamide]","Mice (ip) MES, ED50",[3]; ip,>300 [0.5]
"COC[C@H](NC(C)=O)C(=O)NCc1ccc(N=[N+]=[N-])cc1 [(S)-5, (S)—N-(4-Azidobenzyl)-2-acetamido-3-methoxypropanamide]",melting point,,149 to 150 °C
same,TD50,"[2]; read-out: Mice (ip) Tox, TD50",> 300 mg/kg
"CC(=O)N[C@@H](C)C(=O)NCc1ccc(OCc2cccc(F)c2)cc1 [(S)-6, (S)—N-4-(3-Fluorobenzyloxy)benzyl 2-Acetamidopropionamide]",melting point,,153 to 154 °C
same,"Rat (po) Tox, TD50","[1]; Table b500, orally",>30 [0.25 to mg/kg
same,"Mice (ip) Tox, TD50",[6],>300 [0.5] mg/kg
"COC[C@H](NC(C)=O)C(=O)NCc1ccc(OCc2cccc(F)c2)cc1 [(S)-10, (S)-2-Acetamido-N-(4-(3-fluorobenzyloxy)benzyl)-3-methoxypropanamide]","Mice (ip) Mes, ED50","[3]; Table b500, intraperitoneally",>300 mg/kg
same,"Mice (ip) Tox, TD50",[6],>300 mg/kg
"CC(=O)NC(C(=O)NCc1ccccc1)c1ccccc1 (stereo not drawn) [C, reference compound]",MES ED50,[3]; ip,32 mg/kg
"CC(=O)NC(C(=O)NCc1ccc(C)cc1)c1ccccc1 (stereo not drawn) [D, reference compound]",MES ED50,[3]; ip,~300 mg/kg
"COC[C@@H](NC(C)=O)C(=O)NCc1ccc([N+](=O)[O-])cc1 [F, reference compound]",MES ED50,[3]; ip,">100, <300 mg/kg"
"COC[C@@H](NC(C)=O)C(=O)NCc1ccccc1 [H, reference compound]",Formalin Assay Acute (%),[4]; dose 16 (mg),100%
same,Formalin Assay Inflam. (%),[4]; dose 16 (mg),44%
"CC(=O)NCC(=O)NCc1ccc(OCc2cccc(F)c2)cc1 [compound 5, N-4-(3-Fluorobenzyloxy)benzyl 2-Acetamidoacetamide]","Rat (po) Tox, TD50","[1]; Table b500, orally",>500 [1.0] mg/kg
same,Rat (po) PI,"[5]; Table b500, protective index (TD50/ED50)",>16
CCC1(c2ccccc2)C(=O)NC(=O)NC1=O [phenobarbital],ED50,[7],20 mg/kg
O=C1NC(=O)C(c2ccccc2)(c2ccccc2)N1 [phenytoin],ED50,[7]; rats,34 mg/kg
same,"Preliminary Hippocampal Kindling Test (Rats) Seizure Score, Drug","[7]; rats, after drug (pre-drug score in neighbouring column)",3
same,"Formalin Test (mice, ip) Inflammatory (%)",[4]; dose 6 mg/kg,21 (5) %
same,"Rat (po) MES, ED50","[8]; Ref 16, 32",30 [4.0] mg/kg
same,Rat (po) PI,[8]; Ref 32,>100
same,"Rat (po) MES, ED50",[8]; reference drugs marked h,30 [4]
same,Rat (po) PI,[8]; reference drugs marked h,>100

# Reference: patent publication US8829033B2, “N-benzylamide substituted derivatives of 2-(acylamido)acetic acid and 2-(acylamido)propionic acids: potent neurological agents” (The University of North Carolina at Chapel Hill, priority 2009, dated 2014)
